Experimental data: patent US8067440B2, “Phosphonium salts derivatives and uses thereof” (Valorisation-Recherche, Limited Partnership, priority 2004, dated 2011)
Structures can show the parent of a compound that is named as a salt.

| SMILES | melting point [°C] |
| --- | --- |
| BrCc1ccc(-c2ccc([P+](c3ccccc3)(c3ccccc3)c3ccccc3)cc2)cc1 (as salt: perchlorate) [(16), 4-(4-bromomethylphenyl)phenyl triphenylphosphonium perchlorate] | 72 to 76 |
| [Br-].c1ccc(P(c2ccccc2)c2cccc([P+](c3ccccc3)(c3ccccc3)c3ccccc3)c2)cc1 | 215 to 220 |
